# Data taken from PubChem BioAssay (NCI).
#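 These data come from cells grown in 96-well plates and exposed to compound for 48 hours at five concentrations. GI50 marks 50% less growth. TGI is the concentration that stops growth completely.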
# Assays:
# Test in all cases: NCI anticancer screen, dose series, 48 h
# NCI-H226 lung = test system: NCI-H226 lung
# NCI-H460 lung = test system: NCI-H460 lung
# NCI-H522 lung = test system: NCI-H522 lung
# NCI/ADR-RES ovarian = test system: NCI/ADR-RES ovarian
# OVCAR-3 ovarian = test system: OVCAR-3 ovarian
# OVCAR-4 ovarian = test system: OVCAR-4 ovarian
# OVCAR-5 ovarian = test system: OVCAR-5 ovarian
# OVCAR-8 ovarian = test system: OVCAR-8 ovarian
# PC-3 prostate = test system: PC-3 prostate
# RPMI-8226 leukemia = test system: RPMI-8226 leukemia
# RXF 393 renal = test system: RXF 393 renal
# SF-268 CNS = test system: SF-268 CNS
# SF-295 CNS = test system: SF-295 CNS
# SF-539 CNS = test system: SF-539 CNS
# SK-MEL-2 melanoma = test system: SK-MEL-2 melanoma
# SK-MEL-28 melanoma = test system: SK-MEL-28 melanoma
# SK-MEL-5 melanoma = test system: SK-MEL-5 melanoma
# SK-OV-3 ovarian = test system: SK-OV-3 ovarian
# SN12C renal = test system: SN12C renal
# SNB-19 CNS = test system: SNB-19 CNS
# SNB-75 CNS = test system: SNB-75 CNS
# SR leukemia = test system: SR leukemia
# SW-620 colon = test system: SW-620 colon
# T-47D breast = test system: T-47D breast
# TK-10 renal = test system: TK-10 renal
# U251 CNS = test system: U251 CNS
# UACC-257 melanoma = test system: UACC-257 melanoma
# UACC-62 melanoma = test system: UACC-62 melanoma
# UO-31 renal = test system: UO-31 renal
smiles,measurement,setting,value
CC[C@@H](CO)Nc1ccc2ncc(C#Cc3cncc(C(=O)Nc4ccc(CN5CCN(C)CC5)c(C(F)(F)F)c4)c3)n2n1,TGI,NCI-H226 lung,635 nM
same,GI50,NCI-H460 lung,163 nM
same,TGI,NCI-H460 lung,541 nM
same,GI50,NCI-H522 lung,59.2 nM
same,TGI,NCI-H522 lung,157 nM
same,GI50,NCI/ADR-RES ovarian,5580 nM
same,TGI,NCI/ADR-RES ovarian,18400 nM
same,GI50,OVCAR-3 ovarian,167 nM
same,TGI,OVCAR-3 ovarian,954 nM
same,GI50,OVCAR-4 ovarian,145 nM
same,TGI,OVCAR-4 ovarian,982 nM
same,GI50,OVCAR-5 ovarian,236 nM
same,TGI,OVCAR-5 ovarian,1310 nM
same,GI50,OVCAR-8 ovarian,169 nM
same,TGI,OVCAR-8 ovarian,627 nM
same,GI50,PC-3 prostate,272 nM
same,TGI,PC-3 prostate,1790 nM
same,GI50,RPMI-8226 leukemia,254 nM
same,TGI,RPMI-8226 leukemia,1070 nM
same,GI50,RXF 393 renal,110 nM
same,TGI,RXF 393 renal,333 nM
same,GI50,SF-268 CNS,109 nM
same,TGI,SF-268 CNS,554 nM
same,GI50,SF-295 CNS,413 nM
same,TGI,SF-295 CNS,1390 nM
same,GI50,SF-539 CNS,32 nM
same,TGI,SF-539 CNS,172 nM
same,GI50,SK-MEL-2 melanoma,115 nM
same,TGI,SK-MEL-2 melanoma,339 nM
same,GI50,SK-MEL-28 melanoma,278 nM
same,TGI,SK-MEL-28 melanoma,1100 nM
same,GI50,SK-MEL-5 melanoma,681 nM
same,TGI,SK-MEL-5 melanoma,1350 nM
same,GI50,SK-OV-3 ovarian,622 nM
same,TGI,SK-OV-3 ovarian,2150 nM
same,GI50,SN12C renal,45.2 nM
same,TGI,SN12C renal,605 nM
same,GI50,SNB-19 CNS,203 nM
same,TGI,SNB-19 CNS,1240 nM
same,GI50,SNB-75 CNS,20.6 nM
same,TGI,SNB-75 CNS,108 nM
same,GI50,SR leukemia,34 nM
same,TGI,SR leukemia,534 nM
same,GI50,SW-620 colon,81.3 nM
same,TGI,SW-620 colon,281 nM
same,GI50,T-47D breast,582 nM
same,TGI,T-47D breast,1590 nM
same,GI50,TK-10 renal,343 nM
same,TGI,TK-10 renal,1180 nM
same,GI50,U251 CNS,243 nM
same,TGI,U251 CNS,805 nM
same,GI50,UACC-257 melanoma,390 nM
same,TGI,UACC-257 melanoma,1250 nM
same,GI50,UACC-62 melanoma,284 nM
same,TGI,UACC-62 melanoma,1100 nM
same,GI50,UO-31 renal,917 nM
same,TGI,UO-31 renal,1930 nM
